Data: PMC3570474, “Biochemical Characterization of Uracil Phosphoribosyltransferase from Mycobacterium tuberculosis” (PLoS ONE, 2013)
Where “and” joins values, the source holds several entries; their conditions need not be identical. Equal values may be shown once.

Columns and labels:
MtUPRT [1] = molecular target: T1, MtUPRT (Mycobacterium tuberculosis, UniProt P9WFF3); assay: Evaluation of nucleotides as allosteric effectors; type: biochemical; settings: for activation or inhibition of MtUPRT: 500 µM nucleotide, 128 s
S. solfataricus UPRT = system: S. solfataricus UPRT; set-up: method as in PMID 15752360; settings: cited from earlier work
G. intestinalis UPRT = system: G. intestinalis UPRT; set-up: method as in PMID 7622327; settings: cited from earlier work
MtUPRT [2] = molecular target: T1, MtUPRT; assay: Steady-state kinetics of MtUPRT, continuous spectrophotometric assay (uracil to UMP, 280 nm); type: biochemical; settings: for k cat/K (true steady-state) / true steady-state K (K PRPP, K uracil): initial velocity pattern, varying PRPP at fixed-varying uracil; for true steady-state K (K PRPP, K uracil): sequential mechanism fit
[3] = molecular target: MtUPRT:PRPP binary complex (Mycobacterium tuberculosis, UniProt P9WFF3); assay: Isothermal titration calorimetry of GTP binding to PRPP bound enzyme; settings: 10 mM GTP titrated; MtUPRT 139 µM incubated with 100 µM PRPP for 1 hour
Method: Furthermore, no binding of GTP either to the free enzyme or to the PRPP bound enzyme was detected by ITC (data not shown). The incubation of PRPP with MtUPRT prior to the titration of GTP was tested to determine whether the binding of PRPP to MtUPRT generates conformational changes on the enzyme that could enable GTP binding. However, no binding of GTP to MtUPRT:PRPP binary complex could be detected (data now shown).
ITC experiments were carried out using an iTC200 Microcalorimeter (MicroCal Inc). Ligands and enzyme were prepared in 100 mM Hepes pH 7.5 containing 10 mM MgCl2. For direct titrations the sample cell was filled with 139 µM of MtUPRT (200 µL) and titrated (39.7 µL) with different concentrations of either substrates or products: 200 µM of uracil, 500 µM of PRPP, 500 µM of UMP, and 350 µM of PPi. In addition, titration was performed with 10 mM of GTP and the sample cell was filled with either free MtUPRT (139 µM) or MtUPRT (139 µM) incubated with 100 µM PRPP for 1 hour before starting the measurements. Reverse titrations were also carried out where the sample cell was filled with either 90 µM of PRPP or 150 µM of UMP and titrated with 633 µM of UPRT.
A stirring speed of 500 rpm and a temperature of 25°C were employed for all ITC experiments. […] The experimental data were evaluated using the Origin 7 SR4 software (MicroCal).

MtUPRT [4] = molecular target: T1, MtUPRT; assay: biochemical; type: binding; settings: for Kd: K d; for ΔG / ΔH / ΔS: reverse titration, 25°C
E. coli UPRT = system: E. coli UPRT; set-up: method as in PMID 8856065; settings: without affecting V max; cited from earlier work
UPRT from T. gondii = system: UPRT from T. gondii; set-up: method as in PMID 11773618; settings: also stabilizes the more active tetrameric form; cited from earlier work
MtUPRT [5] = molecular target: T1, MtUPRT; assay: Evaluation of pyrimidine bases as substrates, discontinuous assay (HPLC, LC-ESI-MS/MS); type: biochemical; settings: 0.1 mM base, 1 mM PRPP, 37°C 30 min, confirmed by LC-ESI-MS/MS
Method: Uracil, thymine and cytosine pyrimidine bases were evaluated as possible MtUPRT substrates. The bases were added to MtUPRT reaction mixtures and protein separated by ultrafiltration, and product formation analyzed by HPLC monitoring absorbance at 254, 260, and 280 nm. […] The MtUPRT enzyme activity measurements henceforth described were carried out using uracil as substrate and a continuous spectrophotometric assay.
Reaction mixtures containing 50 mM Tris pH 7.8, 10 mM MgCl2, 1 mM PRPP, and 0.1 mM of the pyrimidine base to be tested (uracil, cytosine, or thymine) were initiated by the addition of 54 nM of homogeneous MtUPRT. The reactions were incubated at 37°C for 30 min and then boiled for 3 min to stop the reaction. The mixtures were passed through a Centricon (10,000 Da molecular weight cut off) to remove the protein content prior to analysis. The nucleotide contents of the samples were analyzed using an HPLC Äkta Purifier system and a Sephasil peptide C18 5 µm ST 4.6/250 column. A 500 µL aliquot of each sample was loaded on the column and adsorbed material isocratically eluted with 5 mM potassium phosphate pH 4.0 containing 5% acetonitrile for 10 min at 1 mL min^−1flow rate. Nucleotides and bases were monitored at 254, 260, and 280 nm.
Another method used to analyze the nucleotide content was the LC-ESI-MS/MS. This experiment was employed to confirm results obtained in the analysis described above. The chromatography was carried out with an Eclipse plus C18 4.6/150 column (Agilent). The injected sample volume was 20 µL, which was eluted isocratically with 10 mM ammonium acetate containing 40% acetonitrile at 0.8 ml min^−1 flow rate. The LC detector was an ESI coupled to the 3200 Q-Trap (Applied Biosystems MDS SCIEX), employing the ESI-MS/MS parameters as described by others. During the chromatography run, precursor ion scan (Prec) and enhance product ion scan (EPI) were monitored. Prec monitored precursors of mass over charge ratio (m/z) of compounds containing a phosphate group (H2PO4 ^−, m/z 97) and EPI gave the fragmentation spectra of the nucleotides m/z.

B. caldolyticus UPRT = system: B. caldolyticus UPRT; set-up: method as in PMID 9268683; settings: hyperbolic saturation curve; cited from earlier work
AUC = molecular target: the molecule itself; assay: AUC
[6] = PRPP variable substrate, fixed-saturating uracil 35 µM
[7] = in the presence of 100 µM GTP, PRPP variable substrate, uracil 35 µM
[8] = in the presence of 100 µM GTP, uracil variable substrate, PRPP 350 µM
[9] = uracil variable substrate, fixed-saturating PRPP 350 µM

Nc1ncnc2c1ncn2[C@@H]1O[C@H](COP(=O)(O)OP(=O)(O)OP(=O)(O)O)[C@@H](O)[C@H]1O [ATP, adenosine 5′-triphosphate]
activation or inhibition of MtUPRT (MtUPRT [1]; 350 µM PRPP, 35 µM uracil): not significantly activated or inhibited

Nc1ccn([C@@H]2O[C@H](COP(=O)(O)OP(=O)(O)OP(=O)(O)O)[C@@H](O)[C@H]2O)c(=O)n1 [CTP, cytidine 5′-triphosphate]
effect of CTP on activity (S. solfataricus UPRT; in the presence of UMP): inhibited the enzyme | effect on UMP inhibition of MtUPRT (MtUPRT [1]; 500 µM CTP together with 100 µM UMP): no increase in UMP inhibition occurred | activation or inhibition of MtUPRT (MtUPRT [1]; 350 µM PRPP, 35 µM uracil): not significantly activated or inhibited

Nc1nc2c(ncn2[C@@H]2O[C@H](COP(=O)(O)OP(=O)(O)OP(=O)(O)O)[C@@H](O)[C@H]2O)c(=O)[nH]1 [GTP, guanosine 5′-triphosphate]
effect of GTP on activity (G. intestinalis UPRT): dramatic increase in the activity | effect on kinetic parameters for MtUPRT (MtUPRT [2]; 100 µM GTP): not affected | effect of GTP on k cat and K M for PRPP and uracil (S. solfataricus UPRT): increase k cat and K M values | activation or inhibition of MtUPRT (MtUPRT [1]; 350 µM PRPP, 35 µM uracil): not significantly activated or inhibited | binding to MtUPRT:PRPP binary complex [3]: no binding | binding to free MtUPRT enzyme (heat changes) (MtUPRT [4]): no binding | effect of GTP on kinetic parameters (E. coli UPRT): lowered the K M value for PRPP | effect of GTP on activity (UPRT from T. gondii): activated by GTP

O=P(O)(O)OP(=O)(O)O [PPi, pyrophosphate]
binding to free MtUPRT enzyme (heat changes) (MtUPRT [4]): no significant heat changes

O=P(O)(O)OC[C@H]1O[C@H](OP(=O)(O)OP(=O)(O)O)[C@H](O)[C@@H]1O [PRPP, 5-phosphoribosyl-α-1-pyrophosphate]
apparent V max (MtUPRT [2]; [6]): 1.75±0.02 U mg^−1 | apparent k cat (MtUPRT [2]; [6]): 0.65 ± 0.01 s⁻¹ | apparent K M (MtUPRT [2]; PRPP variable substrate, fixed-saturating uracil 35 µM, Michaelis-Menten fit): 12.4 ± 0.6 µM | apparent K M (MtUPRT [2]; [7]): 17 ± 2 µM | apparent V max (MtUPRT [2]; [7]): 1.60±0.04 U mg^−1 | apparent k cat (MtUPRT [2]; [7]): 0.59 ± 0.01 s⁻¹ | k cat/K (true steady-state) (MtUPRT [2]): 4.1 (±0.2)×10^4 M^−1 s^−1 | true steady-state K (K PRPP, K uracil) (MtUPRT [2]): 14 ± 1 µM | Kd (MtUPRT [4]): 5 µM and 48 µM and 6 µM and 9 µM | ΔG (MtUPRT [4]; Subunit 1): -7 ± 1 kcal/mol | ΔH (MtUPRT [4]; Subunit 1): 2.8 ± 0.3 kcal/mol | ΔS (MtUPRT [4]; Subunit 1): 34±6 cal mol^−1 deg^−1 | ΔG (MtUPRT [4]; Subunit 2): -6 ± 2 kcal/mol | ΔH (MtUPRT [4]; Subunit 2): -3 ± 16 kcal/mol | ΔS (MtUPRT [4]; Subunit 2): 10±3 cal mol^−1 deg^−1 | ΔG (MtUPRT [4]; Subunit 3): -7 ± 2 kcal/mol | ΔH (MtUPRT [4]; Subunit 3): -41 ± 32 kcal/mol | ΔS (MtUPRT [4]; Subunit 3): −114±33 cal mol^−1 deg^−1 | ΔG (MtUPRT [4]; Subunit 4): -7 ± 3 kcal/mol | ΔH (MtUPRT [4]; Subunit 4): 58 ± 22 kcal/mol | ΔS (MtUPRT [4]; Subunit 4): 217±85 cal mol^−1 deg^−1 | K a (MtUPRT [4]; pH 7.5): 2.0 (±3.6)×10^5 M^−1 and 2.1 (±0.6)×10^4 M^−1 and 1.6 (±0.5)×10^5 M^−1 and 1.1 (±0.4)×10^5 M^−1

O=c1ccn([C@@H]2O[C@H](COP(=O)(O)O)[C@@H](O)[C@H]2O)c(=O)[nH]1 [UMP, uridine 5′-monophosphate]
inhibition of MtUPRT (MtUPRT [1]; 100 µM UMP, 350 µM PRPP, 35 µM uracil): enzyme inhibition was observed | Kd (MtUPRT [4]): 7 µM and 8 µM and 13 µM and 14 µM | ΔG (MtUPRT [4]; Subunit 1): -7 ± 2 kcal/mol | ΔH (MtUPRT [4]; Subunit 1): -5.1 ± 0.4 kcal/mol | ΔS (MtUPRT [4]; Subunit 1): 5±1 cal mol^−1 deg^−1 | ΔG (MtUPRT [4]; Subunit 2): -7 ± 2 kcal/mol | ΔH (MtUPRT [4]; Subunit 2): 6 ± 3 kcal/mol | ΔS (MtUPRT [4]; Subunit 2): 45±16 cal mol^−1 deg^−1 | ΔG (MtUPRT [4]; Subunit 3): -7 ± 3 kcal/mol | ΔH (MtUPRT [4]; Subunit 3): -24 ± 11 kcal/mol | ΔS (MtUPRT [4]; Subunit 3): −56±21 cal mol^−1 deg^−1 | ΔG (MtUPRT [4]; Subunit 4): -7 ± 2 kcal/mol | ΔH (MtUPRT [4]; Subunit 4): 28 ± 18 kcal/mol | ΔS (MtUPRT [4]; Subunit 4): 117±43 cal mol^−1 deg^−1

O=c1ccn([C@@H]2O[C@H](COP(=O)(O)OP(=O)(O)OP(=O)(O)O)[C@@H](O)[C@H]2O)c(=O)[nH]1 [UTP, uridine 5′-triphosphate]
activation or inhibition of MtUPRT (MtUPRT [1]; 350 µM PRPP, 35 µM uracil): not significantly activated or inhibited

Nc1cc[nH]c(=O)n1 [cytosine]
substrate activity (product formation) (MtUPRT [5]): no product formation could be detected

Cc1c[nH]c(=O)[nH]c1=O [thymine]
substrate activity (product formation) (MtUPRT [5]): no product formation could be detected

O=c1cc[nH]c(=O)[nH]1 [uracil]
K 0.5 (MtUPRT [2]; [8]): 2.9 ± 0.1 µM | apparent V max (MtUPRT [2]; [8]): 1.54±0.02 U mg^−1 | apparent k cat (MtUPRT [2]; [8]): 0.57 ± 0.01 s⁻¹ | n (Hill coefficient) (MtUPRT [2]; [8]): 2.2±0.1 | k cat/K (true steady-state) (MtUPRT [2]): 2.2 (±0.3)×10^5 M^−1 s^−1 | true steady-state K (K PRPP, K uracil) (MtUPRT [2]): 2.6 ± 0.4 µM | apparent V max (MtUPRT [2]; [9]): 1.73±0.03 U mg^−1 | apparent k cat (MtUPRT [2]; [9]): 0.64 ± 0.01 s⁻¹ | n (Hill coefficient) (MtUPRT [2]; [9]): 1.9±0.1 | K 0.5 (MtUPRT [2]; uracil variable substrate, fixed-saturating PRPP 350 µM, Hill fit): 3.6 ± 0.1 µM | binding to free MtUPRT enzyme (heat changes) (MtUPRT [4]): no significant heat changes | substrate activity (product formation) (MtUPRT [5]): specific for uracil | K M for uracil (B. caldolyticus UPRT): 2 µM

B1: Uracil phosphoribosyltransferase from Mycobacterium tuberculosis (enzyme)
chain: MQVHVVDHPLAAARLTTLRDERTDNAGFRAALRELTLLLIYEATRDAPCEPVPIRTPLAETVGSRLTKPPLLVPVLRAGLGMVDEAHAALPEAHVGFVGVARDEQTHQPVPYLDSLPDDLTDVPVMVLDPMVATGGSMTHTLGLLISRGAADITVLCVVAAPEGIAALQKAAPNVRLFTAAIDEGLNEVAYIVPGLGDAGDRQFGPR
notes: also called MtUPRT; UPRT
Kd (AUC): ~1 µM | stoichiometry N (AUC): 4
